Where two headings read alike, the source gives them in different places.
How the values were obtained:
[1] = target: T1, rCYP4F2 (Homo sapiens, UniProt P78329); assay: Inhibition of 20-HETE formation at 250 or 500 nM in rCYP4F2 incubations; format: biochemical; details: rCYP4F2 25 pmol/mL; for inhibition at 0.5 µM: 500 nM compound, read-out: rCYP4F2 % inh. @ 500 nM; for inhibition at 0.25 µM: 250 nM compound, read-out: rCYP4F2 % inh. @ 250 nM
T1 sequence (P78329 5-520): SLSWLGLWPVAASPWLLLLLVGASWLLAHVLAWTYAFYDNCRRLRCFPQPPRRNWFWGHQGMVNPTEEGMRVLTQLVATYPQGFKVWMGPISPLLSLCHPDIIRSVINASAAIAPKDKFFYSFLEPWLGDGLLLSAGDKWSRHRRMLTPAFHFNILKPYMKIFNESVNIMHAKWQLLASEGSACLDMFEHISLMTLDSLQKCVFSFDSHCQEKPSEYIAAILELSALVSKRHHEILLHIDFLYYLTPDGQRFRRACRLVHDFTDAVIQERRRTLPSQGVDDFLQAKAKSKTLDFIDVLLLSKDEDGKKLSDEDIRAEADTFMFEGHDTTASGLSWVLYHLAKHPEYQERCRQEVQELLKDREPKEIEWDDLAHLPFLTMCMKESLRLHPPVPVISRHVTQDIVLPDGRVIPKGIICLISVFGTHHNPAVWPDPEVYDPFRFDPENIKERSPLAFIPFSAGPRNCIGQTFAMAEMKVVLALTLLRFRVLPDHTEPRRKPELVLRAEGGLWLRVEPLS
Summary of the method: (§1)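 Microsomes (300 μg/ml) or rCYP4F2 (25 pmol/mL) were incubated with 100 μM arachidonic acid, 1 mM NADPH and test compound in 0.12 M potassium phosphate with 5 mM MgCl2 for 20 min at 37° C. 20-HETE was quantified by UPLC-MS/MS with 20-HETE-d6 internal standard and expressed as percent of vehicle (n=3).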

[2] = system: 20-HETE formation (CYP4) in HLM; assay: Inhibition of 20-HETE formation at 250 or 500 nM in HLM microsomal incubations; format: biochemical, human; details: HLM 300 μg/ml, AA 100 μM, 20 min; for HLM % inh. @ 500 nM: 500 nM compound; for HLM % inh. @ 250 nM: 250 nM compound
Summary of the method: as §1

[3] = Turbidometric solubility determination; format: physicochemical; details: PBS with 1% DMSO, aqueous buffer, kinetic from dmso stock, room temperature
Method: Solubility determinations shown in Table 3 were obtained turbidometrically and in a manner similar to the one described in Perez et al., J. Biomol. Screen, 2015, 20(2), 254-64. The method requires small volumes of 100× stock concentration drug solution to be prepared in DMSO 0, 0.23, 0.47, 0.94, 1.88, 3.75, 7.5, 15.0, 30.0 and […]. The stock drug concentrations are then diluted 1:100 added into triplicate wells containing PBS in a clear bottom 384 well microtiter to achieve final testing concentrations of 0, 2.3, 4.7, 9.4, 18.8, 37.5, 75, 150, 300, 600 μM in 1% DMSO. The plate is allowed to equilibrate with constant shaking for 2 hours at room temperature. The plate is then placed in a SpectroMax V plate reader to measure absorbance at 620 nm. Increase in absorbance is evident in test wells which precipitation of the compound is evident. The plot of OD620 vs. drug concentration is used to calculate the maximum solubility limit as determined by a statistically significant increase in absorbance above the background levels.

[4] = system: 20-HETE formation (CYP4) in RLM; assay: Inhibition of 20-HETE formation at 250 or 500 nM in RLM microsomal incubations; format: biochemical, rat; details: RLM 300 μg/ml; for RLM % inh. @ 500 nM: 500 nM compound; for RLM % inh. @ 250 nM: 250 nM compound
Summary of the method: as §1

[5] = system: 20-HETE formation (CYP4) in RKM; assay: Inhibition of 20-HETE formation at 250 or 500 nM in RKM microsomal incubations; format: biochemical, rat; details: RKM 300 μg/ml; for RKM % inh. @ 500 nM: 500 nM compound; for RKM % inh. @ 250 nM: 250 nM compound
Method: To screen the inhibitory effects against 20-HETE formation, compounds were screened in HLM, RLM, RKM and rCYP4F2 microsomal incubations. Compounds dissolved in either 100% methanol or 100% DMSO to yield 10 mM stock solution. Microsomal incubations containing HLM, RLM, RKM (300 μg/ml) or rCYP4F2 (25 pmol/mL), AA (100 μM), NADPH (1 mM) treated with test compounds at various concentrations (500 nM or 250 nM) in a 1 ml total volume in incubation buffer (0.12 M potassium phosphate buffer containing 5 mM magnesium chloride). Reaction was started by adding NADPH to the incubates and was carried out at 37° C. in a shaking water bath for 20 min. Reaction was stopped by placing tubes on ice, followed by adding 125 μl 20-HETE-d6 as internal standard to each sample. Microsomal incubations were extracted with 3 ml ethyl ether twice, dried down under nitrogen gas and reconstituted in 125 μl 80:20 methanol:deionized H2O for analysis. 20-HETE formation was quantified using a validated UPLC-MS/MS assay and normalized by vehicle group. Each compound had three replications (n=3). Vehicle group was used as control to calculate percentage of 20-HETE formation rate. HET0016 (250 nM) was used as positive control. Incubates without NADPH group served as the negative control. An Acquity ultra performance LC autosampler (Waters, Milford, MA) was used to isolate 20-HETE on an UPLC BEH C18, 1.7 μm (2.1×100 mm) reversed-phase column (Waters, Milford, MA) protected by a guard column (2.1×5 mm; Waters, Milford, MA) of the same packing material. Column temperature was maintained at 55° C. Mobile phases consisted of 0.005% acetic acid, 5% acetonitrile in deionized water (A) and 0.005% acetic acid in acetonitrile (B). The flow rate for mobile phases is 0.5 ml/min. The initial mixture of mobile phase was 65:35 of A and B. Mobile phase B increased at 0.4 minutes after injection from 35% to 70% in a linear gradient over 4 minutes, and again increased to 95% over 0.5 minutes where it remained for 0.3 minutes. This was followed by a linear return to initial conditions over 0.1 minutes with a 1.5 minute pre-equilibration period prior to the next sample run. Total run time was 6.4 minutes for each injection. Injection volumes were 7.5 μl. Mass spectrometric analysis was carried out using a TSQ Quantum Ultra (Thermo Fisher Scientific, San Jose, CA) triple quadrupole mass spectrometer using heated electrospray ionization (HESI). Mass spectrometer was operated in negative selective reaction monitoring (SRM) mode with unit resolutions at both Q1 and Q3 set at 0.70 Da full width at half maximum. Scan time was set at 0.01 s and collision gas pressure was 1.3 mTorr. Quantitation of 20-HETE by SRM was performed by monitoring the m/z. Analytical data was acquired and analyzed using Xcaliber 3.0 data system (ThermoFinnigan, San Jose, CA).

[6] = system: 20-HETE formation (CYP4) in HLM; assay: IC50 determination, 20-HETE formation in HLM; format: biochemical, human; details: HLM 300 μg/ml, AA 100 μM, 12 concentrations
Method: Microsomal incubations contained HLM, RLM (300 μg/ml), AA (100 μM), NADPH (1 mM) and test compounds at 12 concentrations (0.1 nM-50 μM) in a 1 ml total volume in microsomal incubation buffer (0.12 M potassium phosphate buffer containing 5 mM magnesium chloride). Reaction was started by adding NADPH to the incubates and was carried out at 37° C. in a shaking water bath for 20 min. Reaction was stopped by placing tubes on ice, followed by adding 12.5 μl 20-HETE-d6 as internal standard to each sample. Microsomal incubations were extracted with 3 ml ethyl ether twice, dried down under nitrogen gas and reconstituted in 125 μl 80:20 methanol:deionized H2O for analysis. 20-HETE formation was quantified using the validated UPLC-MS/MS assay described above and normalized by vehicle group. HET0016 (250 nM) was used as positive control. Incubates without NADPH group served as the negative control. IC50 was determined by fitting the dose-response curve using Graphpad Prism nonlinear regression.

Structure (SMILES) | inhibition at 0.5 µM [1] [%] | HLM % inh. @ 500 nM [2] [%] | solubility at 2 h ([3]; OD620, read-out: Max Solub) [µM] | solubility at 2 h ([3]; read-out: Solubility_ug/mL) [µg/mL] | RLM % inh. @ 500 nM [4] [%] | RKM % inh. @ 500 nM [5] [%] | IC50 [6] [µM] | inhibition at 0.25 µM [1] [%] | HLM % inh. @ 250 nM [2] [%] | RLM % inh. @ 250 nM [4] [%] | RKM % inh. @ 250 nM [5] [%]
CC(=O)N(C)c1ccc(C2CCN(c3ccn[nH]3)CC2)cc1 [Compound 27, N-(4-(1-(1H-Pyrazol-5-yl)piperidin-4-yl)phenyl)-N-methylacetamide] | 14 | 20.00 | > 600 | 179 | 8.00 | 0.00 | – | – | – | – | –
CC(=O)Nc1ccc(C2CCN(c3ccn[nH]3)CC2)cc1 [Compound 29, N-(4-(1-(1H-Pyrazol-5-yl)piperidin-4-yl)phenyl)acetamide] | 55 | 60.00 | > 600 | 171 | 38.00 | 7.00 | 0.17 | – | – | – | –
COc1ccc(C2CCN(c3ccn[nH]3)CC2)cn1 [Compound 31, 5-(1-(1H-Pyrazol-5-yl)piperidin-4-yl)-2-methoxypyridine] | 44 | 35.00 | > 600 | 155 | 0.00 | 9.00 | – | – | – | – | –
COc1ccc(C2CCN(c3cn[nH]c3)CC2)cn1 [Compound 32, 5-(1-(1H-Pyrazol-4-yl)piperidin-4-yl)-2-methoxypyridine] | 67 | 59.00 | 391 | 101 | 0.00 | 25.00 | 0.13 | – | – | – | –
Cc1cccc(C2CCN(c3ccn[nH]3)CC2)c1 [Compound 33, 1-(1H-Pyrazol-5-yl)-4-(m-tolyl)piperidine] | 69 | 72.00 | – | – | 12.00 | 16.00 | 0.18 | – | – | – | –
Cc1ccccc1C1CCN(c2cn[nH]c2)CC1 [Compound 36, 1-(1H-Pyrazol-4-yl)-4-(o-tolyl)piperidine] | 61 | 46.00 | 752 | – | 0.00 | 4.00 | 0.65 | – | – | – | –
O=S(=O)(c1ccccc1)C1CCN(c2ccn[nH]2)CC1 [Compound 41, 4-(Phenylsulfonyl)-1-(1H-pyrazol-5-yl)piperidine] | 0 | 32.00 | 369 | 108 | 0.00 | 0.00 | – | – | – | – | –
c1ccc(N2CCN(c3ccn[nH]3)CC2)cc1 [Compound 53, 1-Phenyl-4-(1H-pyrazol-5-yl)piperazine] | – | – | – | – | – | – | – | 3.9 | 14.90 | 4.30 | 8.20
c1ccc(OC2CCN(c3ccn[nH]3)CC2)cc1 [Compound 55, 4-Phenoxy-1-(1H-pyrazol-5-yl)piperidine] | – | – | – | – | – | – | – | 0 | 12.11 | 0.00 | 0.00
O=C(c1ccc(C2CCN(c3cn[nH]c3)CC2)c(F)c1)N1CCCC1 [Compound 81, (4-(1-(1H-Pyrazol-4-yl)piperidin-4-yl)-3-fluorophenyl)(pyrrolidin-1-yl)methanone] | 66 | 83.1 | 353 | – | 19.30 | – | 0.0474 | – | – | – | –

Reference: patent US12479816B2, “20-HETE formation inhibitors” (UNIVERSITY OF PITTSBURGH—OF THE COMMONWEALTH SYSTEM OF …, priority 2019, dated 2025)
